Calls of active or inactive are those of the source.
Experiments:
[1] = molecular target: Glucose-6-phosphate 1-dehydrogenase (Homo sapiens, UniProt P11413); assay: human G6PD enzyme inhibitors, dose response, selectivity assay for P. falciparum G6PD inhibitor project, biochemical, fluorescence (AID 504792); assay type: functional
BJ [2] = assay: cytotoxicity toward BJ-TERT fibroblasts, dose response, cell-based, RAS-independent, luminescence (AID 1933); assay type: functional; conditions: Homo sapiens
BJ [3] = assay: cells; assay type: functional, cell-based; conditions: Homo sapiens
BJ [4] = assay: cytotoxicity toward BJ-TERT-LT-ST fibroblasts, dose response, cell-based, RAS-independent, luminescence (AID 1935); assay type: functional; conditions: Homo sapiens;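 note: BJ fibroblasts immortalized with TERT plus LT and ST oncogenes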
[5] = cytotoxicity toward DRD oncogenic fibroblasts, dose response, cell-based, non-viral oncogenic, luminescence (AID 1934); assay type: functional; conditions: Homo sapiens
[6] = cytotoxicity in HEK-293T cells, dose response, cytotoxicity control for TCR NF-kB inhibitor project, luminescence, T-cell screen hits (AID 489026); assay type: functional, cell-based;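 note: cells exposed to compound about 14 hours before the viability readout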
[7] = Luminescence Cell-Based Dose Response HTS to Identify Inhibitors of 5'UTR Stem-Loop Driven Prion Protein mRNA Translation in H4 Neuroglioblastoma Cells. [Related pubchem assays: 1827 (Project Summary), 1813 (Primary HTS)]; assay type: functional
[8] = inhibitors of firefly luciferase expression or activity, dose response, H4 neuroglioma cells, luminescence (AID 1990); assay type: functional, cell-based
[9] = inhibitors of SNCA 5'UTR-driven reporter translation, confirmation, H4 neuroglioma cells, luminescence (AID 1988); assay type: functional, cell-based
P388 = assay: cells; assay type: functional; conditions: Mus musculus
SN12K1 = assay: cells; assay type: functional; conditions: Homo sapiens
P388/ADR = assay: cells; assay type: functional; conditions: Mus musculus
[10] = molecular target: T1, Calpain-2 catalytic subunit (Sus scrofa, UniProt P43367); assay: pig calpain II inhibitor potency, dose response, biochemical, fluorogenic peptide substrate (AID 1420); assay type: functional
T1 sequence (P43367 whole entry): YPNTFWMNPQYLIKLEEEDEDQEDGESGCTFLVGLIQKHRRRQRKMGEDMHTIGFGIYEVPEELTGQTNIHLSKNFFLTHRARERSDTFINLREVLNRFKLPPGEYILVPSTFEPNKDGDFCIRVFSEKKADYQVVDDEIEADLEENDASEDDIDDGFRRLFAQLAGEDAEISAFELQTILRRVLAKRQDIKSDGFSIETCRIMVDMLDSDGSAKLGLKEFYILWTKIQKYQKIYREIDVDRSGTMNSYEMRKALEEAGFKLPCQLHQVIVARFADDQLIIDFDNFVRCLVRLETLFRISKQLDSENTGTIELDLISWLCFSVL

[11] = Luminescence Cell-Based Dose Confirmation HTS to Identify Activators of 5'UTR Stem-Loop Driven Alpha-Synuclein mRNA Translation in H4 Neuroglioblastoma Cells. [Related pubchem assays: 1829 (Project Summary), 1814 (Primary HTS)]; assay type: functional
H4 = assay: Luminescence Cell-Based Dose Response HTS to Identify Activators of 5'UTR Stem-Loop Driven Prion Protein mRNA Translation in H4 Neuroglioblastoma Cells. [Related pubchem assays: 1829 (Project Summary), 1814 (Primary HTS)]; assay type: functional; conditions: Homo sapiens
[12] = Luminescence Cell-Based Dose Response HTS to Identify Activators of Luciferase Translation or Activity in H4 […] Cells. [Related pubchem assays: 1829 (Project Summary), 1814 (Primary HTS)]; assay type: functional

Chain of Glucose-6-phosphate 1-dehydrogenase (P11413 whole entry): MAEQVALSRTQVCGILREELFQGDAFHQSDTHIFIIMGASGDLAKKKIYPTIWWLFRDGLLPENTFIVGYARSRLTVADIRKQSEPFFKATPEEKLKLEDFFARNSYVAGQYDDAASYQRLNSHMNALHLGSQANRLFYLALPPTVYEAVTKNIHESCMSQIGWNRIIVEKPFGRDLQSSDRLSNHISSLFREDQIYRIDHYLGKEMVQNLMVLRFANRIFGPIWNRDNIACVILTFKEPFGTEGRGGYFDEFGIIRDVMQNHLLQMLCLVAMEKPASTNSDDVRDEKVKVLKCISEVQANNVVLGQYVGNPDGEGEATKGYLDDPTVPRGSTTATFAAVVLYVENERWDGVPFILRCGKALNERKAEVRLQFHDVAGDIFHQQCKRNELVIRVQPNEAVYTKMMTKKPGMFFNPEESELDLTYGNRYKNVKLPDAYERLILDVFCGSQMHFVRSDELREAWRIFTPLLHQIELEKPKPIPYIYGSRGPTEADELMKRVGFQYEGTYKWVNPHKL

Cc1ccc(/C=C/C(=O)NCCc2cccc(Cl)c2)o1
IC50 [1]: > 80 µM (inactive)

Cc1ccc2c(c1)C=CC(C#N)N2C(=O)c1ccccc1 (configuration not stated)
EC50 (BJ [2]): 3.69 µM (active)
EC50 (BJ [3]): > 150 µM (not active)
EC50 (BJ [4]): 25.5 µM (inconclusive)
EC50 [5]: 1.54 µM (active)
IC50 [6]: > 80 µM (inactive)

Cc1ccc(CSc2nc3ccccc3cc2C=O)cc1
EC50 (BJ [2]): 0.689 µM (active)
EC50 (BJ [3]): 1.87 µM (active)
EC50 [7]: 11.9 µM (active)
EC50 (BJ [4]): 0.668 µM (active)
EC50 [5]: 1.59 µM (active)
EC50 [8]: > 120 µM (not active)
EC50 [9]: 9.33 µM (active)

Cc1c2c(cc3c1[nH]c1ccccc13)C=NCC2
GI50 (P388): 6.93 µM (inactive)
GI50 (SN12K1): 6.98 µM (inactive)
GI50 (P388/ADR): 8 µM (inactive)

C=C(OC1C(C)=C2C(C1OC(=O)CCCCCCC)C(C)(OC(C)=O)CC(OC(=O)CCC)C1(O)C2OC(=O)C1(C)O)/C(C)=C/C (configuration not stated)
GI50 (P388): 0.0125 µM (active)
GI50 (SN12K1): 0.0125 µM (active)
GI50 (P388/ADR): 0.0251 µM (active)

CC(=O)NC1=C[C@@H]([C@H]2COC(C)(C)O2)OC1=O
GI50 (P388): > 100 µM (inactive)
GI50 (SN12K1): > 100 µM (inactive)
GI50 (P388/ADR): > 100 µM (inactive)

CCCCOc1ccc(OCCCCCCCCCC[N+](C)(C)C)cc1
GI50 (P388): 0.94 µM (active)
GI50 (SN12K1): 1.61 µM (inactive)
GI50 (P388/ADR): 7.05 µM (inactive)

N=C(N)Nc1ncccc1[N+](=O)[O-]
GI50 (P388): 40.2 µM (inactive)
GI50 (SN12K1): > 100 µM (inactive)
GI50 (P388/ADR): 32.9 µM (inactive)

CSc1nc(NC2OCC(O)C(O)C2O)c(N)c(=O)[nH]1 (configuration not stated)
GI50 (P388): > 100 µM (inactive)
GI50 (SN12K1): > 100 µM (inactive)
GI50 (P388/ADR): > 100 µM (inactive)

Oc1ccc(Br)cc1/C=N/c1ccc(Cl)cc1
IC50 [10]: 43.8 µM (not active)

C/C(Cn1nnc([N+](=O)[O-])n1)=N\NC(=O)c1ccccc1
EC50 [11]: > 120 µM (not active)
IC50 [1]: > 80 µM (inactive)
EC50 (H4): > 120 µM (not active)
EC50 [12]: > 120 µM (not active)

Nc1ccn([C@@H]2C=C(CO)[C@@H](O)[C@H]2O)c(=O)n1
GI50 (P388): 0.0752 µM (active)
GI50 (SN12K1): 0.104 µM (active)
GI50 (P388/ADR): 0.0619 µM (active)

Nc1[nH]cnc2ncnc1-2 [ADENINE]
GI50 (P388): 64.9 µM (inactive)
GI50 (SN12K1): 213 µM (inactive)
GI50 (P388/ADR): 79.3 µM (inactive)
